Experimental data published in the METLIN SMRT retention time set (Domingo-Almenara et al. 2019).

Experiment: gradient 5% acetonitrile 3 min, to 50% in 2 min, to 85% in 15 min, held 3 min, 100 µL/min
Conditions: column: Zorbax Extend-C18 2.1 x 50 mm; eluents: water / acetonitrile, 0.1% formic acid
In short: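 The mobile phases were water and acetonitrile, each with 0.1% formic acid, pumped at 100 μL/min through a Zorbax Extend-C18 column (2.1 × 50 mm, 1.8 μm). Pure standards were injected as mixtures of ~100 molecules and detected by a quadrupole time-of-flight mass spectrometer in positive and negative ionization mode. Retention time came from computationally picked adduct peaks, each inspected by hand.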

Row | SMILES | RP-LC retention time [s]
1 | O=C1NC2(CCN(C(=O)c3c(F)cccc3F)CC2)N=C1c1cccc(F)c1 | 815
2 | CCCn1cc(C2=CCN(S(=O)(=O)c3ccc(OC)c(Cl)c3)CC2)c2cccnc21 | 921
3 | COc1cc([C@@H]2c3cc4c(cc3[C@H](O)[C@@H](CO)[C@@H]2C(=O)N2CCN(C)CC2)OCO4)cc(OC)c1OC | 600
4 | Cc1ccsc1C(=O)Nc1cccn2nc(C3CCC3)nc12 | 1030
5 | CCSc1nnc(NC(=O)CCc2csc(NC(=O)c3cccs3)n2)s1 | 788
6 | CC(C)n1c(=O)c2ccccc2n(Cc2nc(-c3cccc(Cl)c3)no2)c1=O | 1190
7 | Cc1cc(C)cc(-c2nc(-c3cccc(-c4ccnn4C)c3)no2)c1 | 1340
8 | Clc1ccccc1N1CCN(c2nccn3nc(-c4ccccc4)cc23)CC1 | 1330
9 | COc1ccccc1N1CCN(c2cc(SCC(=O)NCc3ccc4c(c3)OCO4)ncn2)CC1 | 840
10 | Clc1ccc(-c2nc3cnccn3c2Nc2cccc(Cl)c2)cc1 | 1060
11 | CCc1nc2cc(N3CCC(C(=O)NC(C)c4cccnc4)CC3)cnc2nc1CC (configuration not stated) | 596
12 | O=c1ccc(S(=O)(=O)N2CCCC2)cn1Cc1ccc(F)cc1 | 820
13 | CCOC(=O)c1cc(S(=O)(=O)N2CCCC2C(=O)NC(C)(C)CC)cn1C (configuration not stated) | 931
14 | COC(=O)c1cc2c(=O)n(Cc3ccco3)ccc2nc1C | 747
15 | Cn1c(CN2CCN(C(=O)COc3ccc(F)cc3)CC2)nc2ccccc21 | 581
16 | CCc1cccc(-n2nnc(C(=O)N3CCC4(CC3)OCCO4)c2-c2ccncc2)c1 | 744
17 | O=C1CCCCC(CNC(=O)c2cccs2)N1 (configuration not stated) | 616

Row | SMILES | RP-LC retention time [s]
18 | O=C(Cc1ccc(S(=O)(=O)N2CCN(c3ccccn3)CC2)s1)N1CCCC1 | 615
19 | COCCN1C(=O)c2ccccc2C(C(=O)NCCCc2ccccc2)C12CCCC2 (configuration not stated) | 944
20 | Cc1cc(N2CCN(C(=O)Cc3cccc(F)c3)CC2)nc2nncn12 | 593
21 | COC(=O)c1sccc1NC(=O)N1CCCC1c1cccc(C)c1 (configuration not stated) | 1120
22 | CCOC(=O)c1[nH]c(C)c(C(=O)N2CCC(CC(=O)N3CCN(C4CCCCC4)CC3)CC2)c1C | 598
23 | O=S(=O)(c1cccc(-c2nnc(-c3ccc(Cl)cc3)o2)c1)N1CCCC1 | 1050
24 | COc1cccc(N2CCN(c3ccnc(SCC(=O)Nc4ccc(OC)c(Cl)c4)n3)CC2)c1 | 754
25 | CN(C)C(=O)C1CN(C(=O)c2cccc(Br)c2)CC12CCOCC2 (configuration not stated) | 619
26 | COCCN1C(=O)c2ccccc2C(C(=O)Nc2nc(C)c(C)s2)C12CCCC2 (configuration not stated) | 842
27 | CN1C(=O)c2cc(S(=O)(=O)NC3CCCCCC3)ccc2Oc2cccnc21 | 1000
28 | COc1ccc(OC)c(S(=O)(=O)N2CCCC(C(=O)N3CCOCC3)C2)c1 (configuration not stated) | 664
29 | CCC(=O)NCc1csc(C2CCCN(C(=O)C(C)(C)C)C2)n1 (configuration not stated) | 681
30 | O=C(Cc1cccs1)N(c1ccc(Br)cc1)C1C=CS(=O)(=O)C1 (configuration not stated) | 833
31 | O=C(Nc1cccc(Cl)c1F)N1CCC(N2CC(F)(F)C[C@H]2COCC2CC2)CC1 | 762
32 | CNC(=O)c1cc(=O)[nH]c2ccc(F)cc12 | 584
33 | Cc1nnc2ccc(NC(=O)Nc3ccccc3F)cn12 | 658
34 | CCN(CC)C(=O)c1ccc2c(c1)N(CC(=O)Nc1ccc(C(C)=O)cc1)C(=O)CO2 | 700

Further lines, results first:

Row | RP-LC retention time [s] | SMILES
35 | 705 | CCn1cc(-c2ccncc2)cc1C(=O)NCc1cc(C)ccc1C
36 | 585 | CCn1cc(CN2CCC(C(=O)NCCCN3CCOCC3)CC2)c2cc(Cl)ccc21
37 | 864 | CN(CCc1noc(-c2ccc(F)cc2)n1)C(=O)Nc1ccc(F)cc1
38 | 682 | CCCN1C(=O)c2cccnc2Sc2cc(C(=O)N3CCOCC3)ccc21
39 | 1020 | Cc1ccc(Nc2c(-c3ccc(Cl)cc3)nc3ncccn23)cc1Cl
40 | 925 | O=c1ccc(N2CCCN(S(=O)(=O)c3ccccc3F)CC2)nn1-c1ccc(Cl)cc1
41 | 801 | CN1C(=O)CCc2cc(NS(=O)(=O)c3ccc(Br)s3)ccc21
42 | 868 | CCN1C(=O)C(C)(C(=O)Nc2cc(OC)cc(OC)c2)Oc2cccnc21 (configuration not stated)
43 | 591 | Cc1sc2ccn(Cc3ccc(F)cc3)c(=O)c2c1C(=O)NCCN1CCN(C)CC1
44 | 593 | c1ccc(N2CCN(Cc3nc(-c4ccc(N5CCCCCC5)nc4)no3)CC2)nc1
45 | 785 | Cc1nc2c(ccc3nc(NC(=O)NC4CCCC4)sc32)s1
46 | 642 | O=C(Cc1nnc2cc(-c3nc(C4CC4)no3)ccn12)N1CCOCC1
47 | 691 | CN1C(=O)CCc2cc(NC(=O)c3ccsc3)ccc21
48 | 949 | CC(C)C(=O)Nc1ccc(C(=O)Nc2nc(-c3ccccc3)cs2)cc1
49 | 678 | COCCn1cc(CCNC(=O)c2cncc(Br)c2)c2cccnc21
50 | 802 | CC(C)NC(=O)N1CCCCCC1c1nc(C2CC2)no1 (configuration not stated)
51 | 665 | O=C(NCc1ccc(F)cc1Cl)C1CCN(c2cncnc2N2CCCC2)CC1

Row | RP-LC retention time [s] | SMILES
52 | 651 | NC(N)=Nc1nc2ccc([N+](=O)[O-])cc2[nH]1
53 | 690 | O=C(Nc1ccc2c(c1)OCO2)C1CCN(c2cnc3nccnc3c2)CC1
54 | 807 | CCc1noc(NC(C)=O)c1-c1ccc(C)c(S(=O)(=O)NCc2cccc(OC)c2)c1
55 | 629 | CCN1CCN(c2c(S(=O)(=O)c3ccc(C)c(C)c3)cnc3cc(OC)c(OC)cc23)CC1
56 | 660 | CN(c1ccc(F)cc1)S(=O)(=O)N1CCCC(C(=O)N2CCN(c3ccccn3)CC2)C1 (configuration not stated)
57 | 705 | CNC(=O)C1=CCN(C(=O)c2cc(C)cc(C)c2)CC1
58 | 990 | Cn1nc(-c2nnc(-c3ccc(F)cc3)o2)c2c1CCN(S(=O)(=O)c1ccccc1Cl)C2
59 | 1270 | COc1ccc(-c2csc(C)n2)cc1S(=O)(=O)N1CCN(c2cccc(C)c2C)CC1
60 | 597 | CCOC(=O)c1c(C)[nH]c(CCC(=O)NCCN2CCOCC2)c1C
61 | 684 | COc1ccc(-c2cn3c(CC(=O)Nc4ccc5c(c4)OCCO5)csc3n2)cc1OC
62 | 999 | CCCCN1C(=O)C(C)(C(=O)Nc2ccccc2)Oc2cccnc21 (configuration not stated)
63 | 966 | CCC(C)NS(=O)(=O)c1cc(-c2nnc(-c3ccccc3)o2)ccc1F (configuration not stated)
64 | 940 | Cc1ccc(C)c(N2CCN(c3ccnc(SCC(=O)NC4CCCCC4)n3)CC2)c1
65 | 651 | CN1CCN(C(=O)C2CCN(c3nc4ccc(-c5ccsc5)nc4s3)CC2)CC1
66 | 574 | NC(=O)c1cc[nH]c1C1CCCN(S(=O)(=O)c2cnc[nH]2)C1 (configuration not stated)
67 | 763 | Cc1cc(C(=O)N2CCC(c3nc4ccccc4s3)CC2)no1
